According to patent EP3046573B1, “AMYLIN ANALOGUES” (Zealand Pharma A/S, priority 2013, dated 2015):
Where two headings read alike, the source gives them in different places. Numbered stars: 1 amine (or outer) side, 2 acyl side, 3 side chain; on linkers, the order of the positions; unused ones are H or OH. Bridge positions count the residues as written; N and C are the ends. Square brackets hold non-standard residues; d marks the D form. Peptide text beside a SMILES is read from it. * marks the point of attachment. C20 diacid = O=C(O)CCCCCCCCCCCCCCCCCCC(=O)*; γGlu = O=C(O)[C@H](CCC(=O)[*:2])N[*:1]; NMeI = CC[C@H](C)[C@H](NC)C(=O)O; hArg = N=C(N)NCCCC[C@H](N)C(=O)O; Sar = CNCC(=O)O

Biological target: T1, human calcitonin receptor (hCTR2) (Homo sapiens, UniProt P30988)
T1 construct: expressed in transfected cells
T1 sequence (P30988 25-474): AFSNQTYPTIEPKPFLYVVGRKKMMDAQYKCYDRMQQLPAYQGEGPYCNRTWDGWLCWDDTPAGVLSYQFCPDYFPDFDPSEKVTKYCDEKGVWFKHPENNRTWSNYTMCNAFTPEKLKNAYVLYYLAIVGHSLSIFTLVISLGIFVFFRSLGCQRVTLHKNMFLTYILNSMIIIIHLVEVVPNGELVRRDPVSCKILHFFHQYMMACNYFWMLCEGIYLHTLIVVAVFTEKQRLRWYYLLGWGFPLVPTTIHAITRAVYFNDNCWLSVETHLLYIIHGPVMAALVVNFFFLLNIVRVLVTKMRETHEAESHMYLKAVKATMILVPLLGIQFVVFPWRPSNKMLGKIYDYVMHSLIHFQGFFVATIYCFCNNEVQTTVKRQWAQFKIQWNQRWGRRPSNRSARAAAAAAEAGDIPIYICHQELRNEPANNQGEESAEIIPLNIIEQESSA
Assay: hCTR2 assay: induction of cAMP (AlphaScreen cAMP Assay kit) in COS7 cells expressing hCTR2
Type: cell-based
Outline: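 cAMP read-out by AlphaScreen after cell lysis; EC50 and % efficacy vs pramlintide from 4-parameter logistic fitting. Agonist stimulation: hCTR2-COS7 stable cells, 15 min, 37° C, 100 µM IBMX, 0.1% casein, Tyrode/HEPES pH 7.4.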

[1] = cAMP induction in COS7 cells expressing hCTR2, average of a minimum of 3 determinations, read-out: hCTR2 EC50

SMILES	EC50 [1] [nM]	EC50 [nM]
CC(C)C[C@H](NC(=O)[C@H](C)NC(=O)CN(C)C(=O)[C@H](Cc1ccccc1)NC(=O)[C@H](CC(N)=O)NC(=O)[C@H](CC(N)=O)NC(=O)[C@H](CO)NC(=O)[C@H](CO)NC(=O)[C@H](Cc1c[nH]cn1)NC(=O)[C@H](Cc1c[nH]cn1)NC(=O)[C@H](CC(C)C)NC(=O)[C@H](Cc1ccccc1)NC(=O)[C@H](CCC(=O)O)NC(=O)[C@H](C)NC(=O)[C@H](CC(C)C)NC(=O)[C@H](CCCNC(=N)N)NC(=O)[C@H](CCC(N)=O)NC(=O)[C@@H](NC(=O)[C@H](C)NC(=O)[C@@H]1CSSC[C@H](NC(=O)[C@H](CCCNC(=N)N)NC(=O)CC[C@H](NC(=O)CCCCCCCCCCCCCCCCCCC(=O)O)C(=O)O)C(=O)N[C@@H](CC(N)=O)C(=O)N[C@@H]([C@@H](C)O)C(=O)N[C@@H](C)C(=O)N[C@@H]([C@@H](C)O)C(=O)N1)[C@@H](C)O)C(=O)N[C@@H](CO)C(=O)N[C@@H](CO)C(=O)N[C@H](C(=O)N[C@@H](CC(N)=O)C(=O)N[C@H](C(=O)NCC(=O)N[C@@H](CO)C(=O)N[C@@H](CC(N)=O)C(=O)N[C@H](C(=O)N1CCC[C@H]1C(N)=O)[C@@H](C)O)C(C)C)[C@@H](C)O [Compound 27, [19CD]-isoGlu-RC()NTATC()ATQRLAEFLHHSSNNF-Gly(Me)-ALSSTNVGSNTP-NH2] ({C20 diacid-γGlu}-RCNTATCATQRLAEFLHHSSNNF[Sar]ALSSTNVGSNTP-NH2; disulfide 2-7)	0.14	
CC[C@H](C)[C@@H](C(=O)N[C@@H](CC(C)C)C(=O)N[C@@H](CO)C(=O)N[C@@H](CO)C(=O)N[C@H](C(=O)N[C@@H](CC(N)=O)C(=O)N[C@H](C(=O)NCC(=O)N[C@@H](CO)C(=O)N[C@@H](CC(N)=O)C(=O)N[C@H](C(=O)N1CCC[C@H]1C(N)=O)[C@@H](C)O)C(C)C)[C@@H](C)O)N(C)C(=O)CN(C)C(=O)[C@H](Cc1ccccc1)NC(=O)[C@H](CC(N)=O)NC(=O)[C@H](CC(N)=O)NC(=O)[C@H](CO)NC(=O)[C@@H](CO)NC(=O)[C@H](Cc1c[nH]cn1)NC(=O)[C@H](Cc1c[nH]cn1)NC(=O)[C@H](CC(C)C)NC(=O)[C@H](Cc1ccccc1)NC(=O)[C@H](CCC(=O)O)NC(=O)[C@H](C)NC(=O)[C@H](CC(C)C)NC(=O)[C@H](CCCNC(=N)N)NC(=O)[C@H](CCC(N)=O)NC(=O)[C@@H](NC(=O)[C@H](C)NC(=O)[C@@H]1CSSC[C@H](NC(=O)[C@H](CCCNC(=N)N)NC(=O)CC[C@H](NC(=O)CCCCCCCCCCCCCCCCCCC(=O)O)C(=O)O)C(=O)N[C@@H](CC(N)=O)C(=O)N[C@@H]([C@@H](C)O)C(=O)N[C@@H](C)C(=O)N[C@@H]([C@@H](C)O)C(=O)N1)[C@@H](C)O [Compound 30, [19CD]-isoGlu-RC()NTATC()ATQRLAEFLHH-DSer-SNNF-Gly(Me)-Ile(Me)-LSSTNVGSNTP-NH2] ({C20 diacid-γGlu}-RCNTATCATQRLAEFLHH[dS]SNNF[Sar][NMeI]LSSTNVGSNTP-NH2; disulfide 2-7)	0.56	
CC[C@H](C)[C@@H](C(=O)N[C@@H](CC(C)C)C(=O)N[C@@H](CO)C(=O)N[C@@H](CO)C(=O)N[C@H](C(=O)N[C@@H](CC(N)=O)C(=O)N[C@H](C(=O)NCC(=O)N[C@@H](CO)C(=O)N[C@@H](CC(N)=O)C(=O)N[C@H](C(=O)N1CCC[C@H]1C(N)=O)[C@@H](C)O)C(C)C)[C@@H](C)O)N(C)C(=O)CN(C)C(=O)[C@H](Cc1ccccc1)NC(=O)[C@H](CC(N)=O)NC(=O)[C@H](CC(N)=O)NC(=O)[C@@H](CO)NC(=O)[C@H](CO)NC(=O)[C@H](Cc1c[nH]cn1)NC(=O)[C@H](Cc1c[nH]cn1)NC(=O)[C@H](CC(C)C)NC(=O)[C@H](Cc1ccccc1)NC(=O)[C@H](CCC(=O)O)NC(=O)[C@H](C)NC(=O)[C@H](CC(C)C)NC(=O)[C@H](CCCNC(=N)N)NC(=O)[C@H](CCC(N)=O)NC(=O)[C@@H](NC(=O)[C@H](C)NC(=O)[C@@H]1CSSC[C@H](NC(=O)[C@H](CCCNC(=N)N)NC(=O)CC[C@H](NC(=O)CCCCCCCCCCCCCCCCCCC(=O)O)C(=O)O)C(=O)N[C@@H](CC(N)=O)C(=O)N[C@@H]([C@@H](C)O)C(=O)N[C@@H](C)C(=O)N[C@@H]([C@@H](C)O)C(=O)N1)[C@@H](C)O [Compound 34, [19CD]-isoGlu-RC()NTATC()ATQRLAEFLHHS-DSer-NNF-Gly(Me)-Ile(Me)-LSSTNVGSNTP-NH2] ({C20 diacid-γGlu}-RCNTATCATQRLAEFLHHS[dS]NNF[Sar][NMeI]LSSTNVGSNTP-NH2; disulfide 2-7)	0.26	
CC[C@H](C)[C@@H](C(=O)N[C@@H](CC(C)C)C(=O)N[C@@H](CO)C(=O)N[C@@H](CO)C(=O)N[C@H](C(=O)N[C@@H](CC(N)=O)C(=O)N[C@H](C(=O)NCC(=O)N[C@@H](CO)C(=O)N[C@@H](CC(N)=O)C(=O)N[C@H](C(=O)N1CCC[C@H]1C(N)=O)[C@@H](C)O)C(C)C)[C@@H](C)O)N(C)C(=O)CN(C)C(=O)[C@H](Cc1ccccc1)NC(=O)[C@H](CC(N)=O)NC(=O)[C@@H](CC(N)=O)NC(=O)[C@H](CO)NC(=O)[C@H](CO)NC(=O)[C@H](Cc1c[nH]cn1)NC(=O)[C@H](Cc1c[nH]cn1)NC(=O)[C@H](CC(C)C)NC(=O)[C@H](Cc1ccccc1)NC(=O)[C@H](CCC(=O)O)NC(=O)[C@H](C)NC(=O)[C@H](CC(C)C)NC(=O)[C@H](CCCNC(=N)N)NC(=O)[C@H](CCC(N)=O)NC(=O)[C@@H](NC(=O)[C@H](C)NC(=O)[C@@H]1CSSC[C@H](NC(=O)[C@H](CCCNC(=N)N)NC(=O)CC[C@H](NC(=O)CCCCCCCCCCCCCCCCCCC(=O)O)C(=O)O)C(=O)N[C@@H](CC(N)=O)C(=O)N[C@@H]([C@@H](C)O)C(=O)N[C@@H](C)C(=O)N[C@@H]([C@@H](C)O)C(=O)N1)[C@@H](C)O [Compound 35, [19CD]-isoGlu-RC()NTATC()ATQRLAEFLHHSS-DAsn-NF-Gly(Me)-Ile(Me)-LSSTNVGSNTP-NH2] ({C20 diacid-γGlu}-RCNTATCATQRLAEFLHHSS[dN]NF[Sar][NMeI]LSSTNVGSNTP-NH2; disulfide 2-7)		0.16
CC[C@H](C)[C@@H](C(=O)N[C@@H](CC(C)C)C(=O)N[C@@H](CO)C(=O)N[C@@H](CO)C(=O)N[C@H](C(=O)N[C@@H](CC(N)=O)C(=O)N[C@H](C(=O)NCC(=O)N[C@@H](CO)C(=O)N[C@@H](CC(N)=O)C(=O)N[C@H](C(=O)N1CCC[C@H]1C(N)=O)[C@@H](C)O)C(C)C)[C@@H](C)O)N(C)C(=O)[C@H](C)NC(=O)CN(C)C(=O)[C@H](Cc1ccccc1)NC(=O)[C@H](CC(N)=O)NC(=O)[C@H](CC(N)=O)NC(=O)[C@H](CO)NC(=O)[C@H](CO)NC(=O)[C@H](Cc1c[nH]cn1)NC(=O)[C@H](Cc1c[nH]cn1)NC(=O)[C@H](CC(C)C)NC(=O)[C@H](Cc1ccccc1)NC(=O)[C@H](CCC(=O)O)NC(=O)[C@H](C)NC(=O)[C@H](CC(C)C)NC(=O)[C@H](CCCNC(=N)N)NC(=O)[C@H](CCC(N)=O)NC(=O)[C@@H](NC(=O)[C@H](C)NC(=O)[C@@H]1CSSC[C@H](NC(=O)[C@H](CCCCNC(=N)N)NC(=O)CC[C@H](NC(=O)CCCCCCCCCCCCCCCCCCC(=O)O)C(=O)O)C(=O)N[C@@H](CC(N)=O)C(=O)N[C@@H]([C@@H](C)O)C(=O)N[C@@H](C)C(=O)N[C@@H]([C@@H](C)O)C(=O)N1)[C@@H](C)O [Compound 43, [19CD]-isoGlu-HarC()NTATC()ATQRLAEFLHHSSNNF-Gly(Me)-A-Ile(Me)-LSSTNVGSNTP-NH2] ({C20 diacid-γGlu}-[hArg]CNTATCATQRLAEFLHHSSNNF[Sar]A[NMeI]LSSTNVGSNTP-NH2; disulfide 2-7)		0.1
